The source of these data is patent US6340694B1, “Diarylbenzopyran derivatives as cyclooxygenase-2 inhibitors” (Pacific Corporation, priority 1998, dated 2002).

Each structure is given as a SMILES string.

Assay [1] deals with T1, COX-2 (Mus musculus, UniProt Q05769).
T1 construct: endogenous in cells; host or cells: peritoneal macrophages of C57BL/6 mouse, aspirin-pretreated, LPS-induced
T1 sequence (Q05769 18-604): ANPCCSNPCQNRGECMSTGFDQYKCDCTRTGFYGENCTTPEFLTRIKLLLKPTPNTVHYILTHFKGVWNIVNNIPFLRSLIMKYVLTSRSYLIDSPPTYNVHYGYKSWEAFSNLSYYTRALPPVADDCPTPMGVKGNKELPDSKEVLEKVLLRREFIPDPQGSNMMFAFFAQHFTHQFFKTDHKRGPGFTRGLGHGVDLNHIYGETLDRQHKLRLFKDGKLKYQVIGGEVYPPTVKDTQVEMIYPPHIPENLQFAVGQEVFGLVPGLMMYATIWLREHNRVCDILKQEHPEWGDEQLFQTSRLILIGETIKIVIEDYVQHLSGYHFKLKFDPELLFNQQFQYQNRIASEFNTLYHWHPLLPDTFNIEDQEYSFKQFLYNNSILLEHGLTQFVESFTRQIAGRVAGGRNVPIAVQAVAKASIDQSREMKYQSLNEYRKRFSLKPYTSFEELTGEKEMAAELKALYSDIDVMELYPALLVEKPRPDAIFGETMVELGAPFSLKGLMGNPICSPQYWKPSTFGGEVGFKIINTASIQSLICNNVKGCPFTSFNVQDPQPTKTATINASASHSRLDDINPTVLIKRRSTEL
Briefly: Evaluation of COX-2's inhibition efficacy (PGE2 radioimmuno assay, LPS-induced, aspirin-pretreated peritoneal macrophages). It is filed as cell-based, C57BL/6 mouse. The method, then:
Regarding the compounds in the above Examples and indomethacin, the inhibition efficacy of COX-2 and COX-1 are being measured by the following two methods. […] Evaluation of COX-2's Inhibition Efficacy (J. Pharmacol. Exp. […] After cleaning C57BL/6 mouse's abdomen by 70% EtOH, the skin of mouse's abdomen was eliminated cautiously not to harm peritomeum and 5 ml of cold PBS was poured into the abdominal cavity and in certain times later macrophage-bleeding abdominal-liquid was collected by syringe. […] After putting 1 ml cell suspension having cell number of 1×10^6 cells/mu into each 24-well microtiter plates, macrophages were adhered to the bottom of plate by culturing in the condition of 5% CO2/95% O2, at a temperature of 37° C. for 2 hours. Other cells not being adhered to were eliminated by washing two times with PBS. The purity of macrophages obtained through this process was identified by differential counting. […] After inducing COX-2 by LPS, the cell culture medium was eliminated and macrophages was washed two times with PBS. And 1 ml of RRPI-1640 badge was added to each well again and after treating them with sample with appropriate concentration, they were cultured at a temperature of 37i É for 10 minutes. And then treated them with arachidonic acid to make their final concentration as 10 μM and cultured them additional 10 minutes, all the supernatant liquid of reaction was obtained. The amount of PGE2 produced in the supernatant liquid of reaction was determined by the PGE2 radioimmuno assay.

The target of assay [2] is T2, COX-1 (Mus musculus, UniProt P22437).
T2 construct: there is no pre-treatment of aspirin and LPS in the adhesion of macrophage; endogenous in cells; host or cells: peritoneal macrophages of C57BL/6 mouse, without aspirin and LPS pre-treatment
T2 sequence (P22437 27-602): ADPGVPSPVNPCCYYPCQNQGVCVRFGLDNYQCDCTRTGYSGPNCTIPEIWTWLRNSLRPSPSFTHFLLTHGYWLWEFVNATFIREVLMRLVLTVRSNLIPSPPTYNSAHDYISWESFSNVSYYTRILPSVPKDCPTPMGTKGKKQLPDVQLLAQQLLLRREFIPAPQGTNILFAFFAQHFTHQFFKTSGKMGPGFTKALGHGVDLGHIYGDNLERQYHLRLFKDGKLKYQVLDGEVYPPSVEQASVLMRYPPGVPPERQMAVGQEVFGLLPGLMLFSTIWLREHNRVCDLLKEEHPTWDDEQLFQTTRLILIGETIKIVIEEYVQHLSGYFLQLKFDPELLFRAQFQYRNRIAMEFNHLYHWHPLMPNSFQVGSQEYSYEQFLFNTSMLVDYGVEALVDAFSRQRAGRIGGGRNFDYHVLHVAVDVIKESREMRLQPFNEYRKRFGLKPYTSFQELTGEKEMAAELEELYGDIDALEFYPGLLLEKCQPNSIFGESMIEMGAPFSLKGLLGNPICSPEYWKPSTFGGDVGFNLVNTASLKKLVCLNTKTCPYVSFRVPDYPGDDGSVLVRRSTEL
As to the kind of experiment: Evaluation of COX-1's inhibition efficacy (macrophages without aspirin and LPS pre-treatment). The assay is classed as cell-based, C57BL/6 mouse. The method, then:
Regarding the compounds in the above Examples and indomethacin, the inhibition efficacy of COX-2 and COX-1 are being measured by the following two methods.
After cleaning C57BL/6 mouse's abdomen by 70% EtOH, the skin of mouse's abdomen was eliminated cautiously not to harm peritomeum and 5 ml of cold PBS was poured into the abdominal cavity and in certain times later macrophage-bleeding abdominal-liquid was collected by syringe. By adding RPMI-1640 badge containing penicillin(100 unit/mt) and streptomycin([…]) to cell pellet obtained by centrifugation of collected liquid about 5 minutes in 1500 rpm, it was disperesed and also COX-1 existing in the cell was inactivated by treating with 500 μM aspirin. After putting 1 ml cell suspension having cell number of 1×10^6 cells/mu into each 24-well microtiter plates, macrophages were adhered to the bottom of plate by culturing in the condition of 5% CO2/95% O2, at a temperature of 37° C. for 2 hours. Other cells not being adhered to were eliminated by washing two times with PBS. The purity of macrophages obtained through this process was identified by differential counting. After adding RPMI-1640 badge(normally 5×10^5 cell/ml) containing 3% right fetal blood serum to macrophage and treating it with LPS(lipopolysaccharide) to make final concentration as 10 μg/ml, it was cultured in the condition of 5% CO2, at a temperature of 37° C. for 16 hours. After inducing COX-2 by LPS, the cell culture medium was eliminated and macrophages was washed two times with PBS. And 1 ml of RRPI-1640 badge was added to each well again and after treating them with sample with appropriate concentration, they were cultured at a temperature of 37i É for 10 minutes. And then treated them with arachidonic acid to make their final concentration as 10 μM and cultured them additional 10 minutes, all the supernatant liquid of reaction was obtained. The amount of PGE2 produced in the supernatant liquid of reaction was determined by the PGE2 radioimmuno assay. The 100% COX-2's activation is referenced by the difference of the amount of PGE2 produced in the supernatant liquid of reaction between with 10 μM arachidonic acid treatment and without 10 μM arachidonic acid treatment.
2. Evaluation of COX-1's Inhibition Efficacy
Following the same procedure as the above evaluation of COX-2's inhibition efficacy, but there is no pre-treatment of aspirin and LPS in the adhesion of macrophage.

The term inhibition denotes the change of the read-out against control, counted positive when it falls. With `CS(=O)(=O)c1ccc(-c2oc3ccccc3c(=O)c2-c2cccc(Cl)c2Cl)cc1` [Example 14, 3-(2,3-Dichlorophenyl)-2-(4-(methylsulfonyl)phenyl)-4H-1-benzopyran-4-one], the inhibition at 0.1 µg/mL in assay [1] (0.1 μg/ml) stood at 18%. The inhibition at 1 µg/mL in assay [1] (1 μg/ml) turned out to be 32%. Further, the inhibition at 10 µg/mL in assay [1] (10 μg/ml) stood at 71%.
Consider `Cc1cccc(-c2c(-c3ccc(S(C)(=O)=O)cc3)oc3ccccc3c2=O)c1` [Example 22, 3-(3-Methylphenyl)-2-(4-(methylsulfonyl)phenyl)-4H-1-benzopyran-4-one], for which the inhibition at 0.1 µg/mL in assay [1] (0.1 μg/ml) was 14%. Also, in assay [1] (1 μg/ml), the inhibition at 1 µg/mL was found to be 82%. Also, the inhibition at 10 µg/mL in assay [1] (10 μg/ml) turned out to be 90%.
Take `Cc1ccccc1-c1c(-c2ccc(S(C)(=O)=O)cc2)oc2ccccc2c1=O` [Example 23, 3-(2-Methylphenyl)-2-(4-(methylsulfonyl)phenyl)-4H-1-benzopyran-4-one]: the inhibition at 0.1 µg/mL in assay [1] (0.1 μg/ml) came to 23%. Also, the inhibition at 1 µg/mL in assay [1] (1 μg/ml) amounted to 84%. The inhibition at 10 µg/mL in assay [1] (10 μg/ml) was found to be 97%.
The like results for `CS(=O)(=O)c1ccc(-c2oc3ccccc3c(=O)c2-c2cccc(Cl)c2)cc1` [Example 24, 3-(3-Chlorophenyl)-2-(4-(methylsulfonyl)phenyl)-4H-1-benzopyran-4-one] were, in that order, 22%, 86% and 95%.
As for `CS(=O)(=O)c1ccc(-c2oc3ccccc3c(=O)c2-c2ccccn2)cc1` [Example 33, 2-(4-(Methylsulfonyl)phenyl)-3-(2-pyridinyl)-4H-1-benzopyran-4-one], the inhibition at 1 µg/mL in assay [1] (1 μg/ml) worked out at 27%. The inhibition at 10 µg/mL in assay [1] (10 μg/ml) was 44%; in assay [2] (10 μg/ml), 17%.
For the molecule `NS(=O)(=O)c1ccc(-c2oc3ccc(F)cc3c(=O)c2-c2ccccc2)cc1` [Example 47, 2-(4-(Aminosulfonyl)phenyl)-6-fluoro-3-phenyl-4H-1-benzopyran-4-one], the inhibition at 0.1 µg/mL in assay [1] (0.1 μg/ml) was determined as 23%. In assay [1] (1 μg/ml), the inhibition at 1 µg/mL came to 86%.
With `NS(=O)(=O)c1ccc(-c2oc3ccccc3c(=O)c2-c2ccc3c(c2)OCO3)cc1` [Example 54, 2-(4-(Aminosulfonyl)phenyl)-3-((3,4-methylenedioxy)phenyl)-4H-1-benzopyran-4-one], the “Inhibition (%) COX-2” value in assay [1] (0.1 μg/ml) is given as 20%; in assay [1] (1 μg/ml), 84%. Further, the “Inhibition (%) COX-1” value in assay [2] (10 μg/ml) worked out at 75%.
`CSc1ccc(-c2c(-c3ccc(S(N)(=O)=O)cc3)oc3ccccc3c2=O)cc1` [Example 56, 2-(4-(Aminosulfonyl)phenyl)-3-((4-methylthio)phenyl)-4H-1-benzopyran-4-one]: the results for the “Inhibition (%) COX-2” value in assay [1] (0.1 μg/ml), in assay [1] (1 μg/ml) and in assay [1] (10 μg/ml) were 53%, 84% and 90%, respectively. The “Inhibition (%) COX-1” value in assay [2] (1 μg/ml) is on record as 77%; in assay [2] (10 μg/ml) it was 90%.
On to `NS(=O)(=O)c1ccc(-c2oc3cc(F)ccc3c(=O)c2-c2ccc(F)cc2)cc1` [Example 59, 2-(4-(Aminosulfonyl)phenyl)-7-fluoro-3-(4-fluorophenyl)-4H-1-benzopyran-4-one], for which the inhibition at 0.1 µg/mL in assay [1] (0.1 μg/ml) was found to be 39%. Further, the inhibition at 1 µg/mL in assay [1] (1 μg/ml) was 100%.
Regarding `NS(=O)(=O)c1ccc(-c2oc3cc(F)ccc3c(=O)c2-c2ccccc2F)cc1` [Example 60, 2-(4-(Aminosulfonyl)phenyl)-7-fluoro-3-(2-fluorophenyl)-4H-1-benzopyran-4-one], the inhibition at 0.1 µg/mL in assay [1] (0.1 μg/ml) was 43%. The inhibition at 1 µg/mL in assay [1] (1 μg/ml) was determined as 100%.
For the molecule `NS(=O)(=O)c1ccc(-c2oc3cc(F)ccc3c(=O)c2-c2cccc(F)c2)cc1` [Example 61, 2-(4-(Aminosulfonyl)phenyl)-7-fluoro-3-(3-fluorophenyl)-4H-1-benzopyran-4-one], the inhibition at 0.1 µg/mL in assay [1] (0.1 μg/ml) is 69%. Moreover, the values for the inhibition at 1 µg/mL in assay [1] (1 μg/ml) and in assay [2] (1 μg/ml) were 97% and 22%, respectively. For the same molecule, the inhibition at 10 µg/mL in assay [2] (10 μg/ml) is 38%.
For `NS(=O)(=O)c1ccc(-c2oc3cc(F)ccc3c(=O)c2-c2ccc(Cl)c(Cl)c2)cc1` [Example 62, 2-(4-(Aminosulfonyl)phenyl)-7-fluoro-3-(3,4-dichlorophenyl)-4H-1-benzopyran-4-one], the inhibition at 0.1 µg/mL in assay [1] (0.1 μg/ml) is 89%. In addition, the inhibition at 1 µg/mL in assay [1] (1 μg/ml) is 100%; in assay [2] (1 μg/ml), 54%. In assay [2] (10 μg/ml), the inhibition at 10 µg/mL turned out to be 76%.
In the case of `COc1ccc2c(=O)c(-c3ccc(F)cc3)c(-c3ccc(S(N)(=O)=O)cc3)oc2c1` [Example 64, 2-(4-(Aminosulfonyl)phenyl)-7-methoxy-3-(4-fluorophenyl)-4H-1-benzopyran-4-one], the inhibition at 0.1 µg/mL in assay [1] (0.1 μg/ml) was below 5%. Besides, the inhibition at 1 µg/mL in assay [1] (1 μg/ml) is 52%. Also, the inhibition at 10 µg/mL in assay [1] (10 μg/ml) was 47%.
For `COc1ccc(Cl)c2oc(-c3ccc(S(N)(=O)=O)cc3)c(-c3ccc(F)cc3)c(=O)c12` [Example 65, 2-(4-(Aminosulfonyl)phenyl)-8-chloro-3-(4-fluorophenyl)-5-methoxy-4H-1-benzopyran-4-one], the inhibition at 1 µg/mL amounted to 67% in assay [1] (1 μg/ml) and 24% in assay [2] (1 μg/ml). The results for the inhibition at 10 µg/mL in assay [1] (10 μg/ml) and in assay [2] (10 μg/ml) were 93% and 73%, respectively.
Turning to `NS(=O)(=O)c1ccc(-c2oc3c(Cl)ccc(O)c3c(=O)c2-c2ccc(F)cc2)cc1` [Example 66, 2-(4-(Aminosulfonyl)phenyl)-8-chloro-3-(4-fluorophenyl)-5-hydroxy-4H-1-benzopyran-4-one], the values for the inhibition at 1 µg/mL in assay [1] (1 μg/ml) and in assay [2] (1 μg/ml) were 83% and 40%, respectively. For the same molecule, the results for the inhibition at 10 µg/mL in assay [1] (10 μg/ml) and in assay [2] (10 μg/ml) were 90% and 80%, respectively.
